This is an account of results in US20060069123A1, “Substituted dipiperidine CCR2 antagonists” (priority 2004, published 2006).

This test deals with T1, CCR2 (Homo sapiens, UniProt P41597).
T1 sequence (P41597 1-360 isoform P41597-2): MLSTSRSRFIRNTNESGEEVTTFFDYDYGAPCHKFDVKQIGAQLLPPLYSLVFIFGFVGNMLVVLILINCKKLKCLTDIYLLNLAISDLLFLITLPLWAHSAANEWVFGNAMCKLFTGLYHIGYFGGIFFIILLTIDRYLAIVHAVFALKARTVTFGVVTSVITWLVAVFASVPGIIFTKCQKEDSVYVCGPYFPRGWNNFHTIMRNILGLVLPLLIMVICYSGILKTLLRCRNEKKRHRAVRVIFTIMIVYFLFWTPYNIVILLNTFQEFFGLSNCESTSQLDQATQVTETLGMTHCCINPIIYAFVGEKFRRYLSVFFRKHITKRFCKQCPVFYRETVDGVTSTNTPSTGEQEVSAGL
The following applies: for inhibition at 25 µM: read-out: Inhibition of MCP-1 Binding, percent inhibition.

The structures appear in SMILES notation. Where two headings read alike, the source gives them in different places.

What is called IC50 is the concentration that inhibits the measured activity by half. Molecule `CC(=O)OCC(C1CCN(C(=O)OC(C)(C)C)CC1)N1CCC(c2c[nH]c3ccccc23)CC1` (stereo not drawn) [Cpd 234, 4-{2-acetoxy-1-[4-(1H-indol-3-yl)-piperidin-1-yl]-ethyl}-piperidine-1-carboxylic acid tert-butyl ester] displayed an IC50 of 11.2 µM.
Same read-out and setting: the value for `O=C(O)C(C1CCN(C(=O)Nc2cc(Cl)c(Cl)cc2Cl)CC1)N1CCC(c2c[nH]c3ccccc23)CC1` (stereo not drawn) [Cpd 126, [4-(1H-indol-3-yl)-piperidin-1-yl]-[1-(2,4,5-trichloro-phenylcarbamoyl)-piperidin-4-yl]-acetic acid] was 2.1 µM.
Molecule `N=C(NC(=O)c1cc(F)c(F)c(F)c1)N1CCC(C(C(=O)O)N2CCC(c3c[nH]c4ccccc34)CC2)CC1` (stereo not drawn) [Cpd 52, {1-[imino-(3,4,5-trifluoro-benzoylamino)-methyl]-piperidin-4-yl}-[4-(1H-indol-3-yl)-piperidin-1-yl]-acetic acid] had an IC50 of 0.03 µM.
Turning to `Cc1ccc(NC(=S)N2CCC(C(C(=O)O)N3CCC(c4c[nH]c5ccccc45)CC3)CC2)cc1` (stereo not drawn) [Cpd 78, [4-(1H-indol-3-yl)-piperidin-1-yl]-(1-p-tolylthiocarbamoyl-piperidin-4-yl)-acetic acid], half-maximal inhibition (IC50) was put at 0.14 µM.
Molecule `COC(=O)NCC(C1CCN(C(=O)/C=C/c2cc(F)c(F)c(F)c2)CC1)N1CCC(c2c[nH]c3ccccc23)CC1` (stereo not drawn) [Cpd 238, (2-[4-(1H-indol-3-yl)-piperidin-1-yl]-2-{1-[(2E)-3-(3,4,5-trifluoro-phenyl)-acryloyl]-piperidin-4-yl}-ethyl)-carbamic acid methyl ester] came in with an IC50 of 2.4 µM.
Same read-out and setting: in the case of `COC(=O)NCC(C1CCN(C(=O)/C=C/c2ccc(Cl)c(Cl)c2)CC1)N1CCC(c2c[nH]c3ccccc23)CC1` (stereo not drawn) [Cpd 240] it was 4.6 µM; in that of `O=C(O)C(C1CCN(C(=S)Nc2cccc(Br)c2)CC1)N1CCC(c2c[nH]c3ccccc23)CC1` (stereo not drawn) [Cpd 56, [1-(3-bromo-phenylthiocarbamoyl)-piperidin-4-yl]-[4-(1H-indol-3-yl)-piperidin-1-yl]-acetic acid], 0.06 µM; in that of `O=C(O)C(C1CCN(C(=O)/C=C/c2cc(F)cc(F)c2)CC1)N1CCC(Cc2c[nH]c3ccccc23)CC1` (stereo not drawn) [Cpd 11, {1-[(2E)-3-(3,5-difluoro-phenyl)-acryloyl]-piperidin-4-yl}-[4-(1H-indol-3-ylmethyl)-piperidin-1-yl]-acetic acid], 2.17 µM.
As usually defined, the inhibition is the share of the control response that was lost under treatment. With `COC(=O)NCC(C1CCN(C(=O)/C=C/c2cccc(C)c2)CC1)N1CCC(c2c[nH]c3ccccc23)CC1` (stereo not drawn) [Cpd 241], the inhibition at 25 µM was 58%.
The molecule `O=C(/C=C/c1cc(F)cc(F)c1)N1CCC(C(CO)N2CCC(c3ccccn3)CC2)CC1` (stereo not drawn) [Cpd 200] displayed an IC50 of 2 µM.
Same read-out and setting: in the case of `COCC(C1CCN(C(=O)/C=C/c2cc(F)cc(F)c2)CC1)N1CCC(c2ccc(OC)cc2)CC1` (stereo not drawn) [Cpd 255, (2E)-3-(3,5-difluoro-phenyl)-1-(4-{2-methoxy-1-[4-(4-methoxy-phenyl)-piperidin-1-yl]-ethyl}-piperidin-1-yl)-propenone] it was 2.4 µM; in that of `O=C(/C=C/c1cc(F)cc(F)c1)N1CCC(C(CO)N2CCC(c3nccs3)CC2)CC1` (stereo not drawn) [Cpd 194, (2E)-3-(3,5-difluoro-phenyl)-1-{4-[2-hydroxy-1-(4-thiazol-2-yl-piperidin-1-yl)-ethyl]-piperidin-1-yl}-propenone], 2.3 µM; in that of `O=C(O)C(C1CCN(C(=O)Nc2ccc(F)c(F)c2F)CC1)N1CCC(c2c[nH]c3ccccc23)CC1` (stereo not drawn) [Cpd 125, [4-(1H-indol-3-yl)-piperidin-1-yl]-[1-(2,3,4-trifluoro-phenylcarbamoyl)-piperidin-4-yl]-acetic acid], 1.7 µM.
Same read-out and setting: the value for `O=C(O)C(C1CCN(C(=O)/C=C/c2cc(F)c(F)c(F)c2)CC1)N1CCC(c2ccc(Cl)cc2)CC1` (stereo not drawn) [Cpd 4, [4-(4-chloro-phenyl)-piperidin-1-yl]-{1-[(2E)-3-(3,4,5-trifluoro-phenyl)-acryloyl]-piperidin-4-yl}-acetic acid] was 0.37 µM; that for `O=C(O)C(C1CCN(C(=O)Nc2ccc(Cl)cc2Cl)CC1)N1CCC(c2c[nH]c3ccccc23)CC1` (stereo not drawn) [Cpd 111, [1-(2,4-dichloro-phenylcarbamoyl)-piperidin-4-yl]-[4-(1H-indol-3-yl)-piperidin-1-yl]-acetic acid] was 11.2 µM; that for `CS(=O)(=O)Nc1ccc(C2CCN(C(CO)C3CCN(C(=O)/C=C/c4ccc(Cl)c(Cl)c4)CC3)CC2)cc1` (stereo not drawn) [Cpd 210, N-{4-[1-(1-{1-[(2E)-3-(3,4-dichloro-phenyl)-acryloyl]-piperidin-4-yl}-2-hydroxy-ethyl)-piperidin-4-yl]-phenyl}-methanesulfonamide] was 5 µM.
Same read-out and setting: the value for `CCNC(=O)NCC(C1CCN(C(=O)/C=C/c2cc(F)cc(F)c2)CC1)N1CCC(c2c[nH]c3ccccc23)CC1` (stereo not drawn) [Cpd 229] was 1.7 µM.
`O=C(O)C(C1CCN(C(=O)/C=C/c2cc(F)c(F)c(F)c2)CC1)N1CCC(c2cc[nH]c2)CC1` (stereo not drawn) [Cpd 150, [4-(1H-pyrrol-3-yl)-piperidin-1-yl]-{1-[(2E)-3-(3,4,5-trifluoro-phenyl)-acryloyl]-piperidin-4-yl}-acetic acid] showed an IC50 of 1.6 µM.
On to `COc1ccc(C2CCN(C(CO)C3CCN(C(=O)/C=C/c4cc(F)c(F)cc4F)CC3)CC2)cc1` (stereo not drawn) [Cpd 140, (2E)-1-(4-{2-hydroxy-1-[4-(4-methoxy-phenyl)-piperidin-1-yl]-ethyl}-piperidin-1-yl)-3-(2,4,5-trifluoro-phenyl)-propenone], for which the IC50 (read-out: Inhibition of MCP-1 Binding IC50, 125I labeled MCP-1 binding to CCR2, THP-1 cells) was found to be 1.6 µM.
For the molecule `CCNC(=O)NCC(C1CCN(C(=O)/C=C/c2cccc(C(F)(F)F)c2)CC1)N1CCC(c2c[nH]c3ccccc23)CC1` (stereo not drawn) [Cpd 232], the IC50 stood at 4 µM.
In the case of `O=CNCC(C1CCN(C(=O)/C=C/c2cccc(C(F)(F)F)c2)CC1)N1CCC(c2c[nH]c3ccccc23)CC1` (stereo not drawn) [Cpd 224], the inhibition at 25 µM is 54%.
As to `O=CNCC(C1CCN(C(=O)Nc2ccc(Cl)c(Cl)c2)CC1)N1CCC(c2c[nH]c3ccccc23)CC1` (stereo not drawn) [Cpd 226], 2.1 µM corresponded to half-maximal inhibition (IC50).
On the same count and under the same terms, the value for `COc1ccc(NC(=O)N2CCC(C(C(=O)O)N3CCC(c4c[nH]c5ccccc45)CC3)CC2)cc1Cl` (stereo not drawn) [Cpd 67, [1-(3-chloro-4-methoxy-phenylcarbamoyl)-piperidin-4-yl]-[4-(1H-indol-3-yl)-piperidin-1-yl]-acetic acid] was 0.845 µM; that for `CCNC(=O)NCC(C1CCN(C(=O)/C=C/c2cccc(C)c2)CC1)N1CCC(c2c[nH]c3ccccc23)CC1` (stereo not drawn) [Cpd 231] was 4.6 µM; that for `N=C(NC(=O)c1cccc(C(F)(F)F)c1)N1CCC(C(C(=O)O)N2CCC(c3c[nH]c4ccccc34)CC2)CC1` (stereo not drawn) [Cpd 73, {1-[imino-(3-trifluoromethyl-benzoylamino)-methyl]-piperidin-4-yl}-[4-(1H-indol-3-yl)-piperidin-1-yl]-acetic acid] was 0.15 µM.
Turning to `O=C(/C=C/c1cc(F)cc(F)c1)N1CCC(C(CO)N2CCC(c3ccc(Cl)cc3)CC2)CC1` (stereo not drawn) [Cpd 249, (2E)-1-(4-{1-[4-(4-chloro-phenyl)-piperidin-1-yl]-2-hydroxy-ethyl}-piperidin-1-yl)-3-(3,5-difluoro-phenyl)-propenone], the IC50 is 0.02 µM.
With `O=C(/C=C/c1cc(F)c(F)c(F)c1)N1CCC(C(CO)N2CCC(c3nccs3)CC2)CC1` (stereo not drawn) [Cpd 195], half-maximal inhibition (IC50) required 3.3 µM.
